Test results published in publication PMC7031403, “A molecular switch regulating transcriptional repression and activation of PPARγ” (Nature Communications, 2020).

How the values were obtained:
Assay in all cases: Fluorescence polarization peptide interaction assay, NCoR ID2 peptide affinity, apo- or T0070907-bound wild type or mutant PPARγ LBD
Type in all cases: binding
[1] = biological target: T1, PPARγ LBD (wild type or mutant) (Homo sapiens, UniProt P37231, K395A); conditions: apo (DMSO) K367A PPARγ LBD; one site-total binding fit; read-out: NCoR ID2 peptide affinity, mean of fit (log scale) (converted)
T1 construct: made in house; host or cells: Escherichia coli BL21(DE3)
T1 sequence (P37231 231-505 K395A): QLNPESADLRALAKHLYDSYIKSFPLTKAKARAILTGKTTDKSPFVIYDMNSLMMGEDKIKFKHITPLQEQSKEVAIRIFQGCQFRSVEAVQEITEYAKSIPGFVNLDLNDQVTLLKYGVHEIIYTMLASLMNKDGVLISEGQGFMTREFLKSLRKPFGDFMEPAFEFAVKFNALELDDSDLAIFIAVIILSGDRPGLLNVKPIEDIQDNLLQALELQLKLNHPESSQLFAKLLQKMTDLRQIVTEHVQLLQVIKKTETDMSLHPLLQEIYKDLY
T1 sequence (O75376 2256-2278 partner): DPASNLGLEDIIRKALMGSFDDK
Procedure: (§1) Plates were incubated at 25 °C for 1 h, and fluorescence polarization was measured on a BioTek Synergy Neo multimode plate reader at […] wavelengths. Data were plotted using GraphPad Prism as fluorescence polarization signal in millipolarization units vs. protein concentration and fit to a one site—total binding equation.

[2] = biological target: T2, PPARγ LBD (wild type or mutant) (Homo sapiens, UniProt P37231, Y505A); conditions: apo (DMSO) Y477A PPARγ LBD; one site-total binding fit; read-out: NCoR ID2 peptide affinity, mean of fit (log scale) (converted)
T2 construct: made in house; host or cells: Escherichia coli BL21(DE3)
T2 sequence (P37231 231-505 Y505A): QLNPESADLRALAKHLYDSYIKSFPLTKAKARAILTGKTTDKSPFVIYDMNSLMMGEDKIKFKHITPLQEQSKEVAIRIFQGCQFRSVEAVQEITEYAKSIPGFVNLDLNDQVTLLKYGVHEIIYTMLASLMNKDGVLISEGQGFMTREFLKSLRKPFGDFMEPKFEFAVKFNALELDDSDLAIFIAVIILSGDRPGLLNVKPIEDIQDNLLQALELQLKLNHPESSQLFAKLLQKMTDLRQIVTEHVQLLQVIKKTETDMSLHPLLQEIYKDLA
Procedure: as §1

[3] = biological target: T3, PPARγ LBD (wild type or mutant) (Homo sapiens, UniProt P37231, D503A); conditions: apo (DMSO) D475A PPARγ LBD; one site-total binding fit; read-out: NCoR ID2 peptide affinity, mean of fit (log scale) (converted)
T3 construct: made in house; host or cells: Escherichia coli BL21(DE3)
T3 sequence (P37231 231-505 D503A): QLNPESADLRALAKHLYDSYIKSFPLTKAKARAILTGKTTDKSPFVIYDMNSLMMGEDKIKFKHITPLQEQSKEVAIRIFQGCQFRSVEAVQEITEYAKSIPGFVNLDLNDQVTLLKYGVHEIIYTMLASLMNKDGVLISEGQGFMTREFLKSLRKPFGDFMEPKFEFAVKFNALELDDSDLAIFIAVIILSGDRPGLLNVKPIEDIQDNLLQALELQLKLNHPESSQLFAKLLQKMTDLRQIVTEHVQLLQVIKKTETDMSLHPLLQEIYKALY
Procedure: as §1

[4] = biological target: T4, PPARγ LBD (wild type or mutant) (Homo sapiens, UniProt P37231, H351A); conditions: apo (DMSO) H323A PPARγ LBD; one site-total binding fit; read-out: NCoR ID2 peptide affinity, mean of fit (log scale) (converted)
T4 construct: made in house; host or cells: Escherichia coli BL21(DE3)
T4 sequence (P37231 231-505 H351A): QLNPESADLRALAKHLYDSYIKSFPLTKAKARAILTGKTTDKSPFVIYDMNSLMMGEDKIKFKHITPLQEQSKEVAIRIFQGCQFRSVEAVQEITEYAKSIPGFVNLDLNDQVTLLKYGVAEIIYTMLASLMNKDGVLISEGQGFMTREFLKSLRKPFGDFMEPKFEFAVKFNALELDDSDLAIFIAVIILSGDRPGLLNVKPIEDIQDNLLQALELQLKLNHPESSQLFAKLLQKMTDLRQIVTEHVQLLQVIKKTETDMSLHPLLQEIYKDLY
Procedure: as §1

[5] = biological target: T5, PPARγ LBD (wild type or mutant) (Homo sapiens, UniProt P37231, N340A); conditions: apo (DMSO) N312A PPARγ LBD; one site-total binding fit; read-out: NCoR ID2 peptide affinity, mean of fit (log scale) (converted)
T5 construct: made in house; host or cells: Escherichia coli BL21(DE3)
T5 sequence (P37231 231-505 N340A): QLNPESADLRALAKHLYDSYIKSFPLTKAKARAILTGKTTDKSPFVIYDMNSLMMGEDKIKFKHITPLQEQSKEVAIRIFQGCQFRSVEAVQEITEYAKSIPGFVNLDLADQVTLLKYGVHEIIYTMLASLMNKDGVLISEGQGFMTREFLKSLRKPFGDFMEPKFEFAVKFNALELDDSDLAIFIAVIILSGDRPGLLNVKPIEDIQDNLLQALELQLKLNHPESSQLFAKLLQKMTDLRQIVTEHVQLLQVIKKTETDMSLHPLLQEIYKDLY
Procedure: as §1

[6] = biological target: T6, PPARγ LBD (wild type or mutant) (Homo sapiens, UniProt P37231, Q322A); conditions: apo (DMSO) Q294A PPARγ LBD; one site-total binding fit; read-out: NCoR ID2 peptide affinity, mean of fit (log scale) (converted)
T6 construct: made in house; host or cells: Escherichia coli BL21(DE3)
T6 sequence (P37231 231-505 Q322A): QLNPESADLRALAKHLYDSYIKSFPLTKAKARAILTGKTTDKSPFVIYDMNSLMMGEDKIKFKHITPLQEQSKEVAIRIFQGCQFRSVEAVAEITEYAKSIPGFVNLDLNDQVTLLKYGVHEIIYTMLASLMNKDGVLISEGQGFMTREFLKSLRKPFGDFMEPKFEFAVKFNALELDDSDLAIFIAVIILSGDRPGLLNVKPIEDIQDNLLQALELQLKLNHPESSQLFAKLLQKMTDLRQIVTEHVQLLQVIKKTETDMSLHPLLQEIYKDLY
Procedure: as §1

[7] = biological target: T7, PPARγ LBD (wild type or mutant) (Homo sapiens, UniProt P37231, H477A); conditions: apo (DMSO) H449A PPARγ LBD; one site-total binding fit; read-out: NCoR ID2 peptide affinity, mean of fit (log scale) (converted)
T7 construct: made in house; host or cells: Escherichia coli BL21(DE3)
T7 sequence (P37231 231-505 H477A): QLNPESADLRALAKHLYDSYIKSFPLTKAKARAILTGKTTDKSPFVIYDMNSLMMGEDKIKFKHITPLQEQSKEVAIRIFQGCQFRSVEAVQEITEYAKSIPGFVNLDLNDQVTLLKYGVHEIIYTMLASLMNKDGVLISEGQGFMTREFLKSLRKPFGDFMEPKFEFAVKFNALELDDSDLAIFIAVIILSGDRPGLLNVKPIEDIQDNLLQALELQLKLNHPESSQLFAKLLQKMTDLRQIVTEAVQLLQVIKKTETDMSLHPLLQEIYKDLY
Procedure: as §1

[8] = biological target: T8, PPARγ LBD (wild type or mutant) (Homo sapiens, UniProt P37231, E499R); conditions: apo (DMSO) E471R PPARγ LBD; one site-total binding fit; read-out: NCoR ID2 peptide affinity, mean of fit (log scale) (converted)
T8 construct: made in house; host or cells: Escherichia coli BL21(DE3)
T8 sequence (P37231 231-505 E499R): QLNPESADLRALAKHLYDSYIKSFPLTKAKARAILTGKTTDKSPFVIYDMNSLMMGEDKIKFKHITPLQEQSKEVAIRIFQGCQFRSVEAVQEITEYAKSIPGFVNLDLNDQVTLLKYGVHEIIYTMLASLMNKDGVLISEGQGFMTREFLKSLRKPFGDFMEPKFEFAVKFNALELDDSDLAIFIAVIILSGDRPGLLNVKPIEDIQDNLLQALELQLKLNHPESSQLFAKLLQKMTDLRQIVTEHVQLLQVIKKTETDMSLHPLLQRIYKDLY
Procedure: as §1

[9] = biological target: T9, PPARγ LBD (wild type or mutant) (Homo sapiens, UniProt P37231, D503R); conditions: apo (DMSO) D475R PPARγ LBD; one site-total binding fit; read-out: NCoR ID2 peptide affinity, mean of fit (log scale) (converted)
T9 construct: made in house; host or cells: Escherichia coli BL21(DE3)
T9 sequence (P37231 231-505 D503R): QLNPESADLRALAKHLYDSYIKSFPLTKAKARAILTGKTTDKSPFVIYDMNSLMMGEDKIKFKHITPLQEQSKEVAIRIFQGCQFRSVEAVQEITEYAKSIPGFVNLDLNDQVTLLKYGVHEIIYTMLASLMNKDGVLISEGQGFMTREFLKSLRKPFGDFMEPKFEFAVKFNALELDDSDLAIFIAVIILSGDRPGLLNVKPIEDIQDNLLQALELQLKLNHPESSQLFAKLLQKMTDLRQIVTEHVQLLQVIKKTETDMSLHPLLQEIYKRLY
Procedure: as §1

[10] = biological target: T10, PPARγ LBD (wild type or mutant) (Homo sapiens, UniProt P37231, Y355A); conditions: apo (DMSO) Y327A PPARγ LBD; one site-total binding fit; read-out: NCoR ID2 peptide affinity, mean of fit (log scale) (converted)
T10 construct: made in house; host or cells: Escherichia coli BL21(DE3)
T10 sequence (P37231 231-505 Y355A): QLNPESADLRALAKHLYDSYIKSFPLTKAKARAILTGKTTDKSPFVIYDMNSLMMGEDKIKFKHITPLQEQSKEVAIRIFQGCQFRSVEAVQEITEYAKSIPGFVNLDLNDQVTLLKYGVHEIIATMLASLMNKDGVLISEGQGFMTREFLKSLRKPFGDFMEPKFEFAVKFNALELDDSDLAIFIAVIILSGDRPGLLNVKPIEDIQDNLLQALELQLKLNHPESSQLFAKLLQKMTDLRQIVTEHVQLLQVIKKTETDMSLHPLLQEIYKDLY
Procedure: as §1

[11] = biological target: T11, PPARγ LBD (wild type or mutant) (Homo sapiens, UniProt P37231, E499A); conditions: apo (DMSO) E471A PPARγ LBD; one site-total binding fit; read-out: NCoR ID2 peptide affinity, mean of fit (log scale) (converted)
T11 construct: made in house; host or cells: Escherichia coli BL21(DE3)
Procedure: as §1

[12] = biological target: T12, PPARγ LBD (wild type or mutant) (Homo sapiens, UniProt P37231, M392A); conditions: apo (DMSO) M364A PPARγ LBD; one site-total binding fit; read-out: NCoR ID2 peptide affinity, mean of fit (log scale) (converted)
T12 construct: made in house; host or cells: Escherichia coli BL21(DE3)
T12 sequence (P37231 231-505 M392A): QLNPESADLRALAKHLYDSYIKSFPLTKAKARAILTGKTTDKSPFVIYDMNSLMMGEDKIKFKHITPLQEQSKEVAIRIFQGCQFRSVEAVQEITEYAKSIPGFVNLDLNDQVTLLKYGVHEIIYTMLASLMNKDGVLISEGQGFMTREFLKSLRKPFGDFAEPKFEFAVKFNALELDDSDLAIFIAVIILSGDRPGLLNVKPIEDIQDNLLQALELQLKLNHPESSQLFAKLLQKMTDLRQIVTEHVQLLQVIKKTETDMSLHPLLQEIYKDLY
Procedure: as §1

[13] = biological target: T13, PPARγ LBD (wild type or mutant) (Homo sapiens, UniProt P37231, K347A); conditions: apo (DMSO) K319A PPARγ LBD; one site-total binding fit; read-out: NCoR ID2 peptide affinity, mean of fit (log scale) (converted)
T13 construct: made in house; host or cells: Escherichia coli BL21(DE3)
T13 sequence (P37231 231-505 K347A): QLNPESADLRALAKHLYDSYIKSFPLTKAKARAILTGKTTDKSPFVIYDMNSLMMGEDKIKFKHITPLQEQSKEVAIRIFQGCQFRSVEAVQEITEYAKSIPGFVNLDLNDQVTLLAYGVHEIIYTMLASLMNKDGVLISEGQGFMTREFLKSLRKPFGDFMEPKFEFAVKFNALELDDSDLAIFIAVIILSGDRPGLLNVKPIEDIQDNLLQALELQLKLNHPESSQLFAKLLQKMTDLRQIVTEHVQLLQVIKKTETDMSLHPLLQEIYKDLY
Procedure: as §1

[14] = biological target: T14, PPARγ LBD (wild type or mutant) (Homo sapiens, UniProt P37231, K329A); conditions: apo (DMSO) K301A PPARγ LBD; one site-total binding fit; read-out: NCoR ID2 peptide affinity, mean of fit (log scale) (converted)
T14 construct: made in house; host or cells: Escherichia coli BL21(DE3)
T14 sequence (P37231 231-505 K329A): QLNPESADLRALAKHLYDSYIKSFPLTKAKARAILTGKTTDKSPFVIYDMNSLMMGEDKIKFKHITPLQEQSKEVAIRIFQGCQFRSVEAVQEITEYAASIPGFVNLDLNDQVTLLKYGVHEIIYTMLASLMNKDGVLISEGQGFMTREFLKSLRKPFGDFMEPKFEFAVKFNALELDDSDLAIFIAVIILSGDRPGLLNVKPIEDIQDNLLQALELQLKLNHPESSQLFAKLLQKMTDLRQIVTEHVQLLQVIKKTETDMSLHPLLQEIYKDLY
Procedure: as §1

[15] = biological target: T15, PPARγ LBD (wild type or mutant) (Homo sapiens, UniProt P37231, R308A); conditions: apo (DMSO) R280A PPARγ LBD; one site-total binding fit; read-out: NCoR ID2 peptide affinity, mean of fit (log scale) (converted)
T15 construct: made in house; host or cells: Escherichia coli BL21(DE3)
Procedure: as §1

[16] = biological target: T16, PPARγ LBD (wild type or mutant) (Homo sapiens, UniProt P37231, Q314A); conditions: apo (DMSO) Q286A PPARγ LBD; one site-total binding fit; read-out: NCoR ID2 peptide affinity, mean of fit (log scale) (converted)
T16 construct: made in house; host or cells: Escherichia coli BL21(DE3)
Procedure: as §1

[17] = biological target: T17, PPARγ LBD (wild type or mutant) (Homo sapiens, UniProt P37231, R316A); conditions: apo (DMSO) R288A PPARγ LBD; one site-total binding fit; read-out: NCoR ID2 peptide affinity, mean of fit (log scale) (converted)
T17 construct: made in house; host or cells: Escherichia coli BL21(DE3)
T17 sequence (P37231 231-505 R316A): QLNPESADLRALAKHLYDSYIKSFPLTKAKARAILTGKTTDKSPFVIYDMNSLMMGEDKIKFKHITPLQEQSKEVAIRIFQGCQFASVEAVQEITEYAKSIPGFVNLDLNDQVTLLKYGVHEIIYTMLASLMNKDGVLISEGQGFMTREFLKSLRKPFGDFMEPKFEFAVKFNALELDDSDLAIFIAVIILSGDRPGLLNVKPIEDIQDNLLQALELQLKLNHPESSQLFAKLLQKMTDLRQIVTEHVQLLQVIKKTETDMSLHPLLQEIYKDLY
Procedure: as §1

[18] = biological target: T18, PPARγ LBD (wild type or mutant) (Homo sapiens, UniProt P37231, Q342A); conditions: apo (DMSO) Q314A PPARγ LBD; one site-total binding fit; read-out: NCoR ID2 peptide affinity, mean of fit (log scale) (converted)
T18 construct: made in house; host or cells: Escherichia coli BL21(DE3)
T18 sequence (P37231 231-505 Q342A): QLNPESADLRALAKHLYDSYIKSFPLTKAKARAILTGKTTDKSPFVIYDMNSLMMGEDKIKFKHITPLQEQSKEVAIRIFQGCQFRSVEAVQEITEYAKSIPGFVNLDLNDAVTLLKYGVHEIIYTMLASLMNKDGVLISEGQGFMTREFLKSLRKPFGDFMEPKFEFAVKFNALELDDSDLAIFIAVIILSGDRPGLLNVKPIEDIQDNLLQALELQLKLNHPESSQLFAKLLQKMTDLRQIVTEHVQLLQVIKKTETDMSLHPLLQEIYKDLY
Procedure: as §1

`CC[C@H](C)[C@H](NC(=O)[C@H](CC(=O)O)NC(=O)[C@H](CCC(=O)O)NC(=O)[C@H](CC(C)C)NC(=O)CNC(=O)[C@H](CC(C)C)NC(=O)[C@H](CC(N)=O)NC(=O)[C@H](CO)NC(=O)[C@H](C)NC(=O)[C@@H]1CCCN1C(=O)[C@H](CC(=O)O)NC(=O)CCCCCNC(=S)Nc1ccc2c(c1)C(=O)OC21c2ccc(O)cc2Oc2cc(O)ccc21)C(=O)N[C@H](C(=O)N[C@@H](CCCNC(=N)N)C(=O)N[C@@H](CCCCN)C(=O)N[C@@H](C)C(=O)N[C@@H](CC(C)C)C(=O)N[C@@H](CCSC)C(=O)NCC(=O)N[C@@H](CO)C(=O)N[C@@H](Cc1ccccc1)C(=O)N[C@@H](CC(=O)O)C(=O)N[C@@H](CC(=O)O)C(=O)N[C@@H](CCCCN)C(N)=O)[C@@H](C)CC` [NCoR-D2] showed a Kd [1] of 1080 nM, a Kd [2] of 822 nM and a Kd [3] of 621 nM. The Kd [4] was 621 nM, the Kd [5] was 1410 nM and the Kd [6] was 2420 nM. For the same compound, the Kd [7] was 1490 nM, the Kd [8] was 348 nM and the Kd [9] was 522 nM. It also gave a Kd [10] of 590 nM, a Kd [11] of 525 nM and a Kd [12] of 38.7 µM. It also gave a Kd [13] of 2580 nM, a Kd [14] of 4.93 µM and a Kd [15] of 766 nM. For the same compound, the Kd [16] was 807 nM, the Kd [17] was 1200 nM and the Kd [18] was 867 nM.
